# Results taken from publication PMC4249827, “A Novel CMKLR1 Small Molecule Antagonist Suppresses CNS Autoimmune Inflammatory Disease” (PLoS ONE, 2014).
# Marks after values point to notes of the source that are not given here.
# Assays:
# [1] = system: C57BL/6 mice; test: EAE induced by active immunization with MOG35-55/CFA in C57BL/6 mice; format: in vivo, mouse
# [2] = system: CMKLR1 KO mice; test: EAE induced by active immunization in CMKLR1 KO mice; format: in vivo, mouse; conditions: 10 mg/kg daily s.c.
# [3] = target: G9a histone lysine methyltransferase; design: method as in PubChem, 2014b; ref 23; conditions: Purified enzyme; ref PubChem, 2014b; cited from earlier work
# [4] = target: Tyrosyl-DNA phosphodiesterase 1 + camptothecin; design: method as in PubChem, 2014a; conditions: Cell-based (process); ref PubChem, 2014a; cited from earlier work
# [5] = system: DNA re-replication; design: method as in PubChem, 2014b; conditions: Cell-based (process); ref PubChem, 2014b; read-out: Agonist activity, EC50 (µM), DNA re-replication; cited from earlier work
# [6] = system: Thrombopoietin; design: method as in PubChem, 2014a; conditions: Cell-based; ref PubChem, 2014a; cited from earlier work
# [7] = system: Marburg virus binding/entry; conditions: Cell-based; ref PubChem, 2014b; cited from earlier work
# [8] = system: IL-6/STAT signaling; design: method as in PubChem, 2014a; conditions: Cell-based; ref PubChem, 2014a; cited from earlier work
# [9] = target: Choline acetyltransferase; conditions: Purified enzyme; ref Sastry et al., 1988a; cited from earlier work
# [10] = system: MPP8 chromodomain/methylated histones; design: method as in PubChem, 2014b; conditions: Purified protein (binding); ref PubChem, 2014b; cited from earlier work
# [11] = system: Lassa virus binding/entry; conditions: Cell-based; ref PubChem, 2014b; cited from earlier work
# [12] = target: Bacillus subtilis Sfp phosphopantetheinyl transferase; design: method as in PubChem, 2014a; conditions: Purified enzyme; ref PubChem, 2014a; cited from earlier work
# [13] = system: Bacillus anthracis lethal toxin; conditions: Cell-based (process); ref PubChem, 2014a; cited from earlier work
# [14] = system: GPR154; design: method as in PubChem, 2014b; ref 24; conditions: Cell-based (GPCR); neuropeptide S-induced signaling; ref PubChem, 2014b; cited from earlier work
# [15] = target: Cholinesterase; design: method as in Sastry et al., 1988a; ref 19; conditions: Purified enzyme; ref Sastry et al., 1988a; cited from earlier work
# [16] = system: carnitine acetyletransferase; design: method as in PMID 3174803; conditions: cited from earlier work
# [17] = system: Cytochrome p450 3A4; conditions: cited from earlier work
# [18] = system: Cytochrome p450 1A2; conditions: cited from earlier work
# [19] = system: Cytochrome p450 2D6; conditions: cited from earlier work
# [20] = target: CXCR4 (Homo sapiens, UniProt P61073); test: Transwell chemotaxis of CXCR4+ U937 cells to CXCL12
# [21] = target: CXCR5 (Homo sapiens, UniProt P32302); test: Transwell chemotaxis of CXCR5+ NC-37 cells to CXCL13
# [22] = target: T1, mCMKLR1 (Mus musculus, UniProt P97468); test: Transwell chemotaxis of mCMKLR1/L1.2 transfectants to chemerin
# T1 sequence (P97468 1-371): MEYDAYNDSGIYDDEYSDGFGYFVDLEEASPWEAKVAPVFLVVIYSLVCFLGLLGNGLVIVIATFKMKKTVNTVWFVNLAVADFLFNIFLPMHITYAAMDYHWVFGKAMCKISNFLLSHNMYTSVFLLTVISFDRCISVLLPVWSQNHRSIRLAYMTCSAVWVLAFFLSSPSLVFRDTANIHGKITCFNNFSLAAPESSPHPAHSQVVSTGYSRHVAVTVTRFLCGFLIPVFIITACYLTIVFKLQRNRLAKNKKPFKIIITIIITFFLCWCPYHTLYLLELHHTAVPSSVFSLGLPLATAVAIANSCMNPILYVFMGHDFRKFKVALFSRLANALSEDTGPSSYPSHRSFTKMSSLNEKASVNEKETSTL
# [23] = target: GPR1 (Homo sapiens, UniProt P46091); test: β-arrestin2 (β-ARR2) assay, GPR1/CHO cells, chemerin-stimulated
# [24] = target: T2, huCMKLR1 (Homo sapiens, UniProt Q99788); test: Transwell chemotaxis of huCMKLR1/L1.2 transfectants to chemerin
# T2 sequence (Q99788 1-373): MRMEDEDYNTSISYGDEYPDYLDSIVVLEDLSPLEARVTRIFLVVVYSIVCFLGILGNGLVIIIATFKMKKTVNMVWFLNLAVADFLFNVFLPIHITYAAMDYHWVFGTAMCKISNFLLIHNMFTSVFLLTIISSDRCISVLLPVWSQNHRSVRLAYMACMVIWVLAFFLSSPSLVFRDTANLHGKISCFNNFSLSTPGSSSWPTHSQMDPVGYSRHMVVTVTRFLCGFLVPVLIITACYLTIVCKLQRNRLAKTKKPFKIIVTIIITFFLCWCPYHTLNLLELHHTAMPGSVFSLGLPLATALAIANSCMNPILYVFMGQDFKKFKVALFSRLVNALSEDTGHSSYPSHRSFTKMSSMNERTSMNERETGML
# [25] = system: C57BL/6 mice; test: Histology and flow cytometry of CNS and spleen leukocytes in EAE mice (active immunization)
# Sequence of GPR1 (P46091 whole entry, species assumed): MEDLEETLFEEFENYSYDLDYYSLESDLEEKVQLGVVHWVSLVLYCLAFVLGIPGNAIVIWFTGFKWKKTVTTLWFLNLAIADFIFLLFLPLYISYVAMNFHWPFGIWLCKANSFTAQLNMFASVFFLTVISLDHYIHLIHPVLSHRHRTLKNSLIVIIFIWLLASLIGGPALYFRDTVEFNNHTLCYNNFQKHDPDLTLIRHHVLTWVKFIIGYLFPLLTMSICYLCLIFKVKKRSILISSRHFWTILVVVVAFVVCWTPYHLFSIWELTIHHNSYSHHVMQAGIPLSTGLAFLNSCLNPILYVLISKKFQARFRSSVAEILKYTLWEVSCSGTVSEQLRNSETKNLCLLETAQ
# Sequence of CXCR4 (P61073 whole entry): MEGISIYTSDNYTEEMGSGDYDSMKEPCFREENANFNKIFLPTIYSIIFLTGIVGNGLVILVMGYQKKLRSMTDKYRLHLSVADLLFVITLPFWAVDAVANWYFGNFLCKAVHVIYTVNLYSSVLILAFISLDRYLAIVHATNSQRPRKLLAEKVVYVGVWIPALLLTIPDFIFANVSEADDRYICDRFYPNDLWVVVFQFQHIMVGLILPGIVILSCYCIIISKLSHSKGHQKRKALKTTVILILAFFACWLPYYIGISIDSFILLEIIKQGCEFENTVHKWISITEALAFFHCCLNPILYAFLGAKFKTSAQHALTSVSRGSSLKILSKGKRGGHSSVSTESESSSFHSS
# Sequence of CXCR5 (P32302 whole entry): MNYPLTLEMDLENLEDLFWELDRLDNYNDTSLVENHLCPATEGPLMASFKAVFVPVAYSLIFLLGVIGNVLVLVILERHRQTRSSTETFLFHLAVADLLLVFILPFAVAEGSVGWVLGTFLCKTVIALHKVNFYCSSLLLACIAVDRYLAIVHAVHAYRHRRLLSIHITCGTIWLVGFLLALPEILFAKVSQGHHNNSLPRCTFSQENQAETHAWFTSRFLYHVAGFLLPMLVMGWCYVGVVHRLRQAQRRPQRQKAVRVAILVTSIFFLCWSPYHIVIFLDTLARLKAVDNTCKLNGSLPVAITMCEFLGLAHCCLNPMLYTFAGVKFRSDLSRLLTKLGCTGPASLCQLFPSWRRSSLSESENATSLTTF
smiles,measurement,setting,value
"C[N+](C)(C)CCC(=O)c1cccc2ccccc12.[I-] [α-NETA, 2-(α-naphthoyl)ethyltrimethylammonium iodide]",mice that did not develop clinical EAE by day 27,[1]; 10 mg/kg daily s.c.,~30%
same,suppression of clinical signs beyond first appearance of disease in control mice,[1]; 10 mg/kg daily s.c.,completely suppressed clinical signs for an average of nine days
same,severity of clinical disease,"[1]; 10 mg/kg daily s.c., through day 25",significantly reduced
same,onset of EAE,"[1]; doses as low as 3 mg/kg daily s.c., not shown",significantly delayed the onset of EAE
same,effect on ongoing clinical EAE,"[1]; treatment initiated upon onset of clinical signs, data not shown",failed to reverse ongoing clinical EAE
same,disease incidence by day 20,[2]; not statistically significant,40%
same,Mean day of onset (SEM),"[2]; only animals that developed EAE, not significant (p = 0.18)",14.3 (1.5) ^ns
same,IC50,[3],0.5 µM
same,IC50,[4],0.58 µM
same,EC50,[5],1.8 µM
same,IC50,[6],2.5 µM
same,IC50,[7],4.5 µM
same,IC50,[8],6.3 µM
same,IC50,[9],9 µM
same,IC50,[10],10 µM
same,IC50,[11],10 µM
same,IC50,[12],18 µM
same,IC50,[13],25 µM
same,IC50,[14],32 µM
same,IC50,[15],84 µM
same,activity against carnitine acetyletransferase,[16],inactive
same,IC50,[17],0.2 µM
same,IC50,[18],8 µM
same,IC50,[19],≥ 10 µM
same,IC50,[20],≥ 10 µM
same,inhibition of migration of CXCR4+ cells to CXCL12,"[20]; 1, 3, and 10 µM",did not inhibit
same,IC50,[21],≥ 10 µM
same,inhibition of migration of CXCR5+ NC-37 cells to CXCL13,"[21]; 1, 3, and 10 µM",did not inhibit
same,IC50,[22],5 ± 0.4 µM
same,IC50,[23],3.4 µM
same,fold less potent against GPR1 compared to activity against CMKLR1,[23]; β-arrestin2 assay,10 fold
same,IC50,[24],6.5 ± 0.7 µM
same,total cells in the spleen,"[25]; 16 days p.i., did not reach statistical significance",more total cells in the spleen
same,total cells in the CNS,"[25]; 16 days p.i., p<0.05",fewer total cells in the CNS
same,total numbers of splenic NK cells,"[25]; EAE mice, not shown",did not induce detectable changes
same,numbers of CNS lesions,"[25]; chronic EAE, day 37 p.i., data not shown",no differences in numbers of CNS lesions
same,"leukocyte accumulation within the CNS (T cells, B cells, dendritic cells, macrophages)","[25]; day 16 p.i., no apparent preferential or selective effect on subsets",suppressed leukocyte accumulation
same,meningeal and parenchymal CNS inflammatory foci,"[25]; peak acute EAE, day 16 p.i.",fewer meningeal and parenchymal CNS inflammatory foci
same,% of NK cells (CD3-NK1.1+) in lymphocyte scatter gate,"[25]; spleen, day 16 post-EAE induction, n = 5 mice per group",0.8 (0.1) ^* %
